Laboratory results: US9593108B2, “Compounds and methods for antiviral treatment” (PTC Therapeutics, Inc., priority 2009, dated 2017)

How the values were obtained:
[1] = test system: HCV replicon RNA (GenBank Accession No. AJ242654); experiment: HCV Replicon Assay (replicon RNA reduction and/or Fluc reporter signal); assay type: cell-based, Hepatitis C virus; details: Hepatitis C virus, 72 h, replicon-containing cells cultured with test compound for up to 3 days
Outline: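 IC50 values mostly reflect the drop in replicon RNA, though Fluc reporter signal may also be used. Compound incubated with cells carrying the bicistronic replicon for as long as 3 days; interferon served as positive control.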

SMILES: COc1ccc2c(C#N)c(-c3ccc(S(=O)(=O)NC(CF)CF)cn3)n(C3CCC3)c2n1 [Cpd 41, 6-(3-cyano-1-cyclobutyl-6-methoxy-1H-pyrrolo[2,3-b]pyridin-2-yl)-N-(1,3-difluoropropan-2-yl)pyridine-3-sulfonamide]
- melting point: 194 to 195 °C
- IC50 [1]: < 500 nM

SMILES: COc1ccc2c(C#N)c(-c3ncc(S(=O)(=O)NC(CF)CF)cn3)n(C3CCC3)c2n1 [Cpd 42, 2-(3-cyano-1-cyclobutyl-6-methoxy-1H-pyrrolo[2,3-b]pyridin-2-yl)-N-(1,3-difluoropropan-2-yl)pyrimidine-5-sulfonamide]
- melting point: 229 to 230 °C
- IC50 [1]: < 500 nM

SMILES: COc1ccc2c(C#N)c(-c3ccc(S(=O)(=O)NC(C)(C)C)cc3)n(C3CCC3)c2n1 [Cpd 44, N-tert-butyl-4-(3-cyano-1-cyclobutyl-6-methoxy-1H-pyrrolo[2,3-b]pyridin-2-yl)benzenesulfonamide]
- melting point: 155 to 157 °C
- IC50 [1]: < 500 nM

SMILES: Cc1ncc2c(C#N)c(-c3ccc(S(=O)(=O)N[C@@H](C)C4CC4)cn3)n(C3CCC3)c2n1 [Cpd 45, 6-(5-cyano-7-cyclobutyl-2-methyl-7H-pyrrolo[2,3-d]pyrimidin-6-yl)-N-[(1S)-1-cyclopropylethyl]pyridine-3-sulfonamide]
- melting point: 155 to 157 °C
- IC50 [1]: < 500 nM

SMILES: Cc1ncc2c(C#N)c(-c3ccc(S(=O)(=O)N[C@H](C)C(F)(F)F)cn3)n(C3CCC3)c2n1 [Cpd 46, 6-(5-cyano-7-cyclobutyl-2-methyl-7H-pyrrolo[2,3-d]pyrimidin-6-yl)-N-[(2R)-1,1,1-trifluoropropan-2-yl]pyridine-3-sulfonamide]
- melting point: 166 to 168 °C
- IC50 [1]: < 500 nM

SMILES: C[C@@H](NS(=O)(=O)c1ccc(-c2c(C#N)c3cc(F)cnc3n2C2CCC2)nc1)C(F)(F)F [Cpd 47, 6-(3-cyano-1-cyclobutyl-5-fluoro-1H-pyrrolo[2,3-b]pyridin-2-yl)-N-[(2R)-1,1,1-trifluoropropan-2-yl]pyridine-3-sulfonamide]
- melting point: 167 to 169 °C
- IC50 [1]: < 500 nM

SMILES: COc1cnc2c(c1)c(C#N)c(-c1ncc(S(=O)(=O)NC(C)C)cn1)n2C1CCC1 [Cpd 49, 2-(3-cyano-1-cyclobutyl-5-methoxy-1H-pyrrolo[2,3-b]pyridin-2-yl)-N-(propan-2-yl)pyrimidine-5-sulfonamide]
- melting point: 215 to 217 °C
- IC50 [1]: < 500 nM

SMILES: C[C@@H](NS(=O)(=O)c1ccc(-c2c(C#N)c3cc(Cl)cnc3n2C2CCC2)nc1)C(F)(F)F [Cpd 50, 6-(5-chloro-3-cyano-1-cyclobutyl-1H-pyrrolo[2,3-b]pyridin-2-yl)-N-[(2R)-1,1,1-trifluoropropan-2-yl]pyridine-3-sulfonamide]
- melting point: 202 to 203 °C
- IC50 [1]: < 500 nM

SMILES: C[C@H](NS(=O)(=O)c1ccc(-c2c(C#N)c3cc(Cl)cnc3n2C2CCC2)nc1)C(F)(F)F [Cpd 51, 6-(5-chloro-3-cyano-1-cyclobutyl-1H-pyrrolo[2,3-b]pyridin-2-yl)-N-[(2S)-1,1,1-trifluoropropan-2-yl]pyridine-3-sulfonamide]
- melting point: 203 to 204 °C
- IC50 [1]: < 500 nM

SMILES: CC(C)(C)NS(=O)(=O)c1ccc(-c2c(C#N)c3cc(Cl)cnc3n2C2CCC2)nc1 [Cpd 52, N-tert-butyl-6-(5-chloro-3-cyano-1-cyclobutyl-1H-pyrrolo[2,3-b]pyridin-2-yl)pyridine-3-sulfonamide]
- melting point: 207 to 208 °C
- IC50 [1]: < 500 nM

SMILES: Cc1ncc2c(C#N)c(-c3ccc(S(=O)(=O)NC(C)(C)C(F)(F)F)cc3)n(C3CCC3)c2n1 [Cpd 53, 4-(5-cyano-7-cyclobutyl-2-methyl-7H-pyrrolo[2,3-d]pyrimidin-6-yl)-N-(1,1,1-trifluoro-2-methylpropan-2-yl)benzenesulfonamide]
- melting point: 211 to 214 °C
- IC50 [1]: < 500 nM

SMILES: C[C@H](NS(=O)(=O)c1ccc(-c2c(C#N)c3ccc(OC(F)F)nc3n2C2CCC2)nc1)C(F)(F)F [Cpd 54, 6-[3-cyano-1-cyclobutyl-6-(difluoromethoxy)-1H-pyrrolo[2,3-b]pyridin-2-yl]-N-[(2S)-1,1,1-trifluoropropan-2-yl]pyridine-3-sulfonamide]
- melting point: 176 to 177 °C
- IC50 [1]: < 500 nM

SMILES: N#Cc1c(-c2ncc(S(=O)(=O)NC(CF)CF)cn2)n(C2CCC2)c2nc(OC(F)F)ccc12 [Cpd 55, 2-[3-cyano-1-cyclobutyl-6-(difluoromethoxy)-1H-pyrrolo[2,3-b]pyridin-2-yl]-N-(1,3-difluoropropan-2-yl)pyrimidine-5-sulfonamide]
- melting point: 234 to 236 °C
- IC50 [1]: < 500 nM

SMILES: CC(C)(NS(=O)(=O)c1ccc(-c2c(C#N)c3cc(Cl)cnc3n2C2CCC2)nc1)C(F)(F)F [Cpd 56, 6-(5-chloro-3-cyano-1-cyclobutyl-1H-pyrrolo[2,3-b]pyridin-2-yl)-N-(1,1,1-trifluoro-2-methylpropan-2-yl)pyridine-3-sulfonamide]
- melting point: 221 to 222 °C
- IC50 [1]: < 500 nM

SMILES: N#Cc1c(-c2ccc(S(=O)(=O)NC3(C(F)(F)F)CC3)cn2)n(C2CCC2)c2ncc(Cl)cc12 [Cpd 57, 6-(5-chloro-3-cyano-1-cyclobutyl-1H-pyrrolo[2,3-b]pyridin-2-yl)-N-[1-(trifluoromethyl)cyclopropyl]pyridine-3-sulfonamide]
- melting point: 254 to 255 °C
- IC50 [1]: < 500 nM

SMILES: CC(C)NS(=O)(=O)c1cnc(-c2c(C#N)c3cc(Cl)cnc3n2C2CCC2)nc1 [Cpd 58, 2-(5-chloro-3-cyano-1-cyclobutyl-1H-pyrrolo[2,3-b]pyridin-2-yl)-N-(propan-2-yl)pyrimidine-5-sulfonamide]
- melting point: 224 to 225 °C
- IC50 [1]: < 500 nM

SMILES: C[C@@H](NS(=O)(=O)c1ccc(-c2c(C#N)c3cc(Cl)cnc3n2CC2CC2)nc1)C(F)(F)F [Cpd 59, 6-[5-chloro-3-cyano-1-(cyclopropylmethyl)-1H-pyrrolo[2,3-b]pyridin-2-yl]-N-[(2R)-1,1,1-trifluoropropan-2-yl]pyridine-3-sulfonamide]
- melting point: 224 to 226 °C
- IC50 [1]: 500 to 2000 nM

SMILES: C[C@@H](NS(=O)(=O)c1ccc(-c2c(C#N)c3cc(F)cnc3n2CC2CC2)nc1)C(F)(F)F [Cpd 60, 6-[3-cyano-1-(cyclopropylmethyl)-5-fluoro-1H-pyrrolo[2,3-b]pyridin-2-yl]-N-[(2R)-1,1,1-trifluoropropan-2-yl]pyridine-3-sulfonamide]
- melting point: 185 to 187 °C
- IC50 [1]: < 500 nM

SMILES: C[C@H](NS(=O)(=O)c1ccc(-c2c(C#N)c3cc(Cl)cnc3n2C2CCC2)cc1)C(F)(F)F [Cpd 61, 4-(5-chloro-3-cyano-1-cyclobutyl-1H-pyrrolo[2,3-b]pyridin-2-yl)-N-[(2S)-1,1,1-trifluoropropan-2-yl]benzenesulfonamide]
- melting point: 220 to 222 °C
- IC50 [1]: < 500 nM

SMILES: C[C@H](NS(=O)(=O)c1ccc(-c2c(C#N)c3cnc(OC(F)F)nc3n2C2CCC2)nc1)C(F)(F)F [Cpd 62, 6-[5-cyano-7-cyclobutyl-2-(difluoromethoxy)-7H-pyrrolo[2,3-d]pyrimidin-6-yl]-N-[(2S)-1,1,1-trifluoropropan-2-yl]pyridine-3-sulfonamide]
- melting point: 172 to 174 °C
- IC50 [1]: < 500 nM

SMILES: C[C@H](NS(=O)(=O)c1ccc(-c2c(C#N)c3cc(Cl)cnc3n2CC2CC2)nc1)C(F)(F)F [Cpd 63, 6-[5-chloro-3-cyano-1-(cyclopropylmethyl)-1H-pyrrolo[2,3-b]pyridin-2-yl]-N-[(2S)-1,1,1-trifluoropropan-2-yl]pyridine-3-sulfonamide]
- melting point: 226 to 227 °C
- IC50 [1]: < 500 nM

SMILES: C[C@H](NS(=O)(=O)c1ccc(-c2c(C#N)c3cc(F)cnc3n2CC2CC2)nc1)C(F)(F)F [Cpd 64, 6-[3-cyano-1-(cyclopropylmethyl)-5-fluoro-1H-pyrrolo[2,3-b]pyridin-2-yl]-N-[(2S)-1,1,1-trifluoropropan-2-yl]pyridine-3-sulfonamide]
- melting point: 186 to 188 °C
- IC50 [1]: < 500 nM

SMILES: COc1cnc2c(c1)c(C#N)c(-c1ccc(S(=O)(=O)NC(CF)CF)cc1)n2C1CCC1 [Cpd 65, 4-(3-cyano-1-cyclobutyl-5-methoxy-1H-pyrrolo[2,3-b]pyridin-2-yl)-N-(1,3-difluoropropan-2-yl)benzenesulfonamide]
- melting point: 215 to 218 °C
- IC50 [1]: < 500 nM

SMILES: COc1cnc2c(c1)c(C#N)c(-c1ccc(S(=O)(=O)N[C@@H](C)C(F)(F)F)cn1)n2CC1CC1 [Cpd 66, 6-[3-cyano-1-(cyclopropylmethyl)-5-methoxy-1H-pyrrolo[2,3-b]pyridin-2-yl]-N-[(2S)-1,1,1-trifluoropropan-2-yl]pyridine-3-sulfonamide]
- melting point: 136 to 140 °C
- IC50 [1]: < 500 nM

SMILES: C[C@H](NS(=O)(=O)c1ccc(-c2c(C#N)c3cc(Cl)ncc3n2C2CCC2)nc1)C(F)(F)F [Cpd 67, 6-(5-chloro-3-cyano-1-cyclobutyl-1H-pyrrolo[2,3-c]pyridin-2-yl)-N-[(2S)-1,1,1-trifluoropropan-2-yl]pyridine-3-sulfonamide]
- melting point: 180 to 183 °C
- IC50 [1]: < 500 nM

SMILES: Cc1cnc2c(c1)c(C#N)c(-c1ccc(S(=O)(=O)N[C@H](C)C(F)(F)F)cn1)n2C1CCC1 [Cpd 68, 6-(3-cyano-1-cyclobutyl-5-methyl-1H-pyrrolo[2,3-b]pyridin-2-yl)-N-[(2R)-1,1,1-trifluoropropan-2-yl]pyridine-3-sulfonamide]
- melting point: 176 to 178 °C
- IC50 [1]: < 500 nM

SMILES: Cc1cnc2c(c1)c(C#N)c(-c1ccc(S(=O)(=O)N[C@@H](C)C(F)(F)F)cn1)n2C1CCC1 [Cpd 69, 6-(3-cyano-1-cyclobutyl-5-methyl-1H-pyrrolo[2,3-b]pyridin-2-yl)-N-[(2S)-1,1,1-trifluoropropan-2-yl]pyridine-3-sulfonamide]
- melting point: 177 to 179 °C
- IC50 [1]: < 500 nM

SMILES: Cc1cnc2c(c1)c(C#N)c(-c1ncc(S(=O)(=O)N[C@H](C)C(F)(F)F)cn1)n2C1CCC1 [Cpd 70, 2-(3-cyano-1-cyclobutyl-5-methyl-1H-pyrrolo[2,3-b]pyridin-2-yl)-N-[(2R)-1,1,1-trifluoropropan-2-yl]pyrimidine-5-sulfonamide]
- melting point: 186 to 188 °C
- IC50 [1]: < 500 nM
